Reference: US8809377B2, “Deubiquitinase inhibitors and methods for use of the same” (The Regents of the University of Michigan, priority 2010, dated 2014)

How the values were obtained:
USP5 [1] = target: T1, USP5 (Homo sapiens, UniProt P45974); test: HA-UbVs labeling of USP5; format: cell-based
T1 construct: endogenous in cells; host or cells: Z138
T1 sequence (P45974 1-858): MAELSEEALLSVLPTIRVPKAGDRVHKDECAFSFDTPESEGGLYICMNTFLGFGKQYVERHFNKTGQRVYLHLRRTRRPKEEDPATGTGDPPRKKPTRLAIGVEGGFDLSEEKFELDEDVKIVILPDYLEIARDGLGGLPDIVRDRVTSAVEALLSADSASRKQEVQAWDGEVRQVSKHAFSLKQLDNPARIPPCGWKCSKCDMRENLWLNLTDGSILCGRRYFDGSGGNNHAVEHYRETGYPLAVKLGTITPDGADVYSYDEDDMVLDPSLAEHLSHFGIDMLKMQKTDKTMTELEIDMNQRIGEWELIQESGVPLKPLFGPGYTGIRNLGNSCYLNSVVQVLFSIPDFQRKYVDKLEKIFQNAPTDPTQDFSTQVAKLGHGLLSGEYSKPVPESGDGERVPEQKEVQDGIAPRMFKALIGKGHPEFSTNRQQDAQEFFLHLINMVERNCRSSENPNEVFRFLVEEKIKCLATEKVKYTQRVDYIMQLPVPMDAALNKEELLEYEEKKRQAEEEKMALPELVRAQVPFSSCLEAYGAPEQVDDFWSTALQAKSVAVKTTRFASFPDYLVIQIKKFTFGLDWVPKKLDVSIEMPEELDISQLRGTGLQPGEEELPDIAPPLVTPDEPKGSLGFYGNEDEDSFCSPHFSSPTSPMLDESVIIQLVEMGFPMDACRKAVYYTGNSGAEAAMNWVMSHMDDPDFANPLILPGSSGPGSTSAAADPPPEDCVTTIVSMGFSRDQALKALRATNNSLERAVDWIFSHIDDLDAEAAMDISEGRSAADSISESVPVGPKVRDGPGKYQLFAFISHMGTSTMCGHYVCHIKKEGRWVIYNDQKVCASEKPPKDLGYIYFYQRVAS
Procedure: To assay for changes in activity of cellular deubiquitinase enzymes, Z138 and HEK293 cells were lysed in DUB buffer (50 mM Tris pH 7.4, 5 mM MgCl2, 150 mM NaCl) for 10 min at 4° C. The lysates were centrifuged at 20,000 RFC for 10 min and the supernatant was used for DUB labeling. Equal amounts of lysate were incubated with 500 ng of HA-UbVs for 1 hr at room temperature, followed by boiling in reducing sample buffer and resolving by SDS-PAGE. After protein transfer to nitrocellulose membranes, HA immunoblotting was used to detect DUB labeling.
Hemagglutinin-tagged ubiquitin vinyl methyl sulfone (HA-UbVs) acts as a DUB suicide substrate, forming a covalent adduct with active DUB enzymes. Specific cellular DUBs can be identified by anti-HA blotting, as previously shown in various cell types. Changes in specific DUB activities are measurable by monitoring HA-labeling in lysates from control and treated cells. […]
USP9x was immunoprecipitated from Z138 cell lysates, prepared in DUB buffer and the beads were incubated with vehicle alone or WP1130 for 30 min. Ub-AMC (500 nM) was added to each reaction and fluorescence was monitored every minute for up to 30 minutes. The maximum fluorescence observed at the end of the linear phase of substrate cleavage in control and WP1130 treated DUBs was used as a gauge to estimate DUB activity and % inhibition. […]

Hsp70 = Hsp70 immunoblot; format: cell-based; details: CML cells
cellular DUB activity = test: DUB activity of lysates from treated cells (Ub-AMC, Ub chain disassembly); format: cell-based
Procedure: Cells were lysed in ice cold DUB buffer containing 50 mM Tris-HCl, pH 7.5, 0.5% NP-40, 5 mM MgCl2, 150 mM NaCl and 1 mM phenylmethylsulfonylfluoride. Briefly, 5 μg of clarified lysate from untreated or treated cells was incubated with 500 nM Ub-AMC in a 100 μL reaction volume at 37° C. and the release of AMC fluorescence was recorded at ex/em 380/480 using a spectrofluorometer. USP9x was immunoprecipitated from 500 μg of cell lysate and incubated in DUB buffer containing NEM, WP1130 or DMSO in a 100 μL reaction volume for 30 min. The reaction was initiated by the addition of 500 nM Ub-AMC and the release of AMC-fluorescence was recorded.
In vitro disassembly of purified polyubiquitin chains (K-48/K-63 linked) was performed as previously described. Five μg of lysate from untreated or WP1130 treated cells were prepared in DUB buffer and incubated with K48- or K-63 linked chains (1 μg) for 10 min at 37° C. The extent of chain disassembly was assessed by ubiquitin immunoblotting.
Inhibition of cellular deubiquitinases could lead to an increase in high molecular weight ubiquitinated proteins in the absence of proteasome inhibition. […] To directly assess the impact of WP1130 on DUB activity in treated cells, cell lysates from control and treated cells were incubated with ubiquitin-AMC and fluorescence generated as a consequence of substrate cleavage was measured as an indicator of DUB activity.
The effect of WP1130 treatment on in vitro deubiquitination/disassembly of purified K48-linked or K63-linked polyubiquitin chains was evaluated. Lysates from WP1130 treated (2 hr) or untreated cells were incubated with 1 μg of unanchored polyubiquitin chains for 5, 10 and 15 min at 37° C.

UCH-L1 = UCH-L1 (Homo sapiens, UniProt P09936); test: Ub-AMC assay on purified DUB; format: biochemical; details: 5 μM
Procedure: (§1) Purified DUBs at optimal concentrations (USPS; 20 nM, UCH-L1; 20 nM, UCH-L3; 5 nM, USP9x; immunoprecipitated from 500 μg Z138 cell lysate) were incubated in DUB buffer containing WP1130, vehicle alone (DMSO) or 1 mM NEM (positive control for DUB inhibition) in a 100 μL reaction volume for 30 min. The reaction was initiated by the addition of 500 nM Ub-AMC and the release of AMC-fluorescence was recorded at ex/em 380/480 using a spectrofluorometer.
(§2) USP9x was immunoprecipitated from Z138 cell lysates, prepared in DUB buffer and the beads were incubated with vehicle alone or WP1130 for 30 min. Ub-AMC (500 nM) was added to each reaction and fluorescence was monitored every minute for up to 30 minutes. The maximum fluorescence observed at the end of the linear phase of substrate cleavage in control and WP1130 treated DUBs was used as a gauge to estimate DUB activity and % inhibition. Treatment with 5 μM WP1130 reduced the activities of USP9x, USP5 and UCH-L1 by 80% or more.

UCH-L3 = UCH-L3 (Homo sapiens, UniProt P15374); test: Ub-AMC assay on purified DUB; format: biochemical
Procedure: as §1, §2

USP5 [2] = target: T1, USP5; test: Ub-AMC assay on purified DUB; format: biochemical; details: 5 μM
Procedure: as §1, §2

Chain of UCH-L1 (P09936 whole entry, species assumed): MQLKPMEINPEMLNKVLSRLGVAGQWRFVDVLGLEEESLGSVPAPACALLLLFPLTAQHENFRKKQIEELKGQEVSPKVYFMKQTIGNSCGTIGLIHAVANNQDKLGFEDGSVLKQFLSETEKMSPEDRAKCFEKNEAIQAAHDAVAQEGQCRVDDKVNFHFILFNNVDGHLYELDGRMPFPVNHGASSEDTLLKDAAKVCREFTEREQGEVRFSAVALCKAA
Chain of UCH-L3 (P15374 whole entry, species assumed): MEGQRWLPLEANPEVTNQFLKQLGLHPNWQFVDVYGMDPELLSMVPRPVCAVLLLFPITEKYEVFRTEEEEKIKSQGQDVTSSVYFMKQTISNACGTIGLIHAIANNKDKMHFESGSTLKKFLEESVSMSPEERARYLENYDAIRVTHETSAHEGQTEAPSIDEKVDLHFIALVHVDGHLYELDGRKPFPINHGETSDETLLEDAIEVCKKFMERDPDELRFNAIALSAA

For `CCC[C@H](NC(=O)/C(C#N)=C/c1cccc(Br)n1)c1ccccc1` [WP1130], the “reduction in HA labeling of USP5” value (USP5 [1]; HA-UbVs labeling upon incubation with compound) was “about 80%”, the “HA-UbVS labeling of USPS” value (USP5 [1]; Z138 cells, 1, 5 or 10 μM, 1 hour) was “dose-dependent and time reduction in the labeling” and the Hsp70 protein levels (Hsp70) was “increased”. For the same molecule, the “Ub-AMC hydrolyzing activity of lysates from treated cells” value (cellular DUB activity; CML cells, WP1130 1-8 hours) was “limited effects”, the “reduction of DUB activity (ubiquitin-AMC)” value (cellular DUB activity; Z138 cells, 5 μM WP1130 or 50 nM bortezomib, by 4 hours) was ~50% and the “disassembly of K48-/K63-linked polyubiquitin chains by lysates” value (cellular DUB activity; lysates from cells treated 2 hr) was “limited disassembly”. For the same molecule, the “reduction of UCH-L1 activity” value (UCH-L1) was ≥ 80%, the “inhibition of UCH-L3 activity” value (UCH-L3) was “No inhibition” and the “reduction of USP5 activity” value (USP5 [2]) was ≥ 80%.
